What was measured:
Experiment in all cases: biochemical
Design in all cases: in vitro kinase selectivity panel, protein and lipid kinases, single concentration, ATP at Km
Details in all cases: ATP at Km
PIK4A = target: T1, PIK4A (Homo sapiens, UniProt P42356)
T1 construct: gene PI4KA
How it was run: (§1)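 Single-point screen against a protein and lipid kinase panel: inhibitor at 1 μM. ATP concentration for every kinase equivalent to its Km.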

Fer(h) = Fer(h) (Homo sapiens, UniProt P16591)
How it was run: as §1

LKB1(h) = target: T2, LKB1(h) (Homo sapiens, UniProt Q15831)
T2 construct: gene STK11
How it was run: as §1

CDK5/p35(h) = target: T3, CDK5/p35(h) (Homo sapiens, UniProt Q00535)
T3 construct: p35
How it was run: as §1

FAK(h) = target: T4, FAK(h) (Homo sapiens, UniProt Q05397)
T4 construct: gene PTK2
How it was run: as §1

TrkB(h) = target: T5, TrkB(h) (Homo sapiens, UniProt Q16620)
T5 construct: gene NTRK2
T5 sequence (Q16620 whole entry): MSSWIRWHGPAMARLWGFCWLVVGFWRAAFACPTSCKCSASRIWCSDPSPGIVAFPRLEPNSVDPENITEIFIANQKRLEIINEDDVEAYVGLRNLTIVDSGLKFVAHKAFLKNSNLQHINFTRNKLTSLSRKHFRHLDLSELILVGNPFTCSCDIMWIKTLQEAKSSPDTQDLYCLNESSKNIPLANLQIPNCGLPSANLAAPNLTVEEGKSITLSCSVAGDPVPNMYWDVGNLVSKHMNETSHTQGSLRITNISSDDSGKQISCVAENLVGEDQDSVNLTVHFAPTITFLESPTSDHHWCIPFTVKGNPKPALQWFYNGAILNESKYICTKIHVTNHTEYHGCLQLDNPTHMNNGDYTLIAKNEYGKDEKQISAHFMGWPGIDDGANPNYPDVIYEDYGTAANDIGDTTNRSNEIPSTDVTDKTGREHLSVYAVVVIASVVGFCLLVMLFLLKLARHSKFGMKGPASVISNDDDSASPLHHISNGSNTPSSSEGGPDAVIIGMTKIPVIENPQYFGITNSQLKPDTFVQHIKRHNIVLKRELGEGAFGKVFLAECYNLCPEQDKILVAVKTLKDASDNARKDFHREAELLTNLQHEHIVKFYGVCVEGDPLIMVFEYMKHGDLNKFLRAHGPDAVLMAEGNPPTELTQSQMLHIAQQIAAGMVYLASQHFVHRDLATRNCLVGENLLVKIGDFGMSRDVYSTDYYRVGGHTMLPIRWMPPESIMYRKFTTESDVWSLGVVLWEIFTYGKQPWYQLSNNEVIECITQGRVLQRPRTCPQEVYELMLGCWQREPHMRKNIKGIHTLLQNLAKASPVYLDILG
How it was run: as §1

Flt3(D835Y)(h) = Flt3(D835Y)(h) (Homo sapiens, UniProt P36888, D835Y)
How it was run: as §1

PAK4(h) = PAK4(h) (Homo sapiens, UniProt O96013)
How it was run: as §1

Ron(h) = target: T6, Ron(h) (Homo sapiens, UniProt Q04912)
T6 construct: gene MST1R
How it was run: as §1

CK1γ3(h) = target: T7, CK1γ3(h) (Homo sapiens, UniProt Q9Y6M4)
T7 construct: gene CSNK1G3
How it was run: as §1

ZIPK(h) = target: T8, ZIPK(h) (Homo sapiens, UniProt O43293)
T8 construct: gene DAPK3
T8 sequence (O43293 whole entry): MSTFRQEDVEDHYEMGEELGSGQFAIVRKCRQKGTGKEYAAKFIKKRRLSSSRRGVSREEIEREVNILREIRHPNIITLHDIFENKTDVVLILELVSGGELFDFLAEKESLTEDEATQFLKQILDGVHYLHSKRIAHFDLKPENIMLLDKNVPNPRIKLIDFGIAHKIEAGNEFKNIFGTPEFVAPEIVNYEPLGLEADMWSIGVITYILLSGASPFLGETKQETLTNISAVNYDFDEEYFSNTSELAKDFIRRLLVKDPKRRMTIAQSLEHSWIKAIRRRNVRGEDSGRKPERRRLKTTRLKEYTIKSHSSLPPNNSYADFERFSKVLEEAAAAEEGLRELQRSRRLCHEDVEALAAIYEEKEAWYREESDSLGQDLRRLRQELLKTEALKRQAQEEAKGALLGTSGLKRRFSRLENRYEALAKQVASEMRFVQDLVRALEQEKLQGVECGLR
How it was run: as §1

PIK3CB / p85 (h) = target: T9, PIK3CB / p85 (h) (Homo sapiens, UniProt P42338)
T9 construct: p110beta/p85
How it was run: as §1

MELK(h) = MELK(h) (Homo sapiens, UniProt Q14680)
How it was run: as §1

FGFR1(h) = FGFR1(h) (Homo sapiens, UniProt P11362)
FGFR1(h), sequence (P11362 whole entry): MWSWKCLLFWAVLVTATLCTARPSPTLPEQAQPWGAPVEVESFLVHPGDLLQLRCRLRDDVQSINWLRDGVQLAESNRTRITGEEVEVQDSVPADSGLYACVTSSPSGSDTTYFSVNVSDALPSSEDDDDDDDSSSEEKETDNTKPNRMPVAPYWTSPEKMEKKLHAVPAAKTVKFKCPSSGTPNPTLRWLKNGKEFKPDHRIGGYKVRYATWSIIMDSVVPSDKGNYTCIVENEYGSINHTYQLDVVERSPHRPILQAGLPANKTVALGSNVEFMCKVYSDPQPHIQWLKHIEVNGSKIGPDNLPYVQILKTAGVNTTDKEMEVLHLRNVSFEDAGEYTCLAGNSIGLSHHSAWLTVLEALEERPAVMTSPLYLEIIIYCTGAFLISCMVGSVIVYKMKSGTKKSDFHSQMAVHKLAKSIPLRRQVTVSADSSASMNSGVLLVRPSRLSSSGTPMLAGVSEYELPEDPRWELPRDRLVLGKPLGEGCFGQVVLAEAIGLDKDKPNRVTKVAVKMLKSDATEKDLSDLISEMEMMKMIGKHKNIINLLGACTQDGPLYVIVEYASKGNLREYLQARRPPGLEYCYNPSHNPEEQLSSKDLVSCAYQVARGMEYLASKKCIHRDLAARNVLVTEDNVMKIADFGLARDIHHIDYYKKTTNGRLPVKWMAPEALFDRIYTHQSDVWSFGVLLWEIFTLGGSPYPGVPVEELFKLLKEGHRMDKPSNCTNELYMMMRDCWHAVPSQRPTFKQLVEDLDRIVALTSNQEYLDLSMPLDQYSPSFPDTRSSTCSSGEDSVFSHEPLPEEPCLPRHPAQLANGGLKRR
How it was run: as §1

PIK3CG / p85 (h) = target: T10, PIK3CG / p85 (h) (Homo sapiens, UniProt P48736)
T10 construct: p110gamma/p85 as printed
T10 sequence (P48736 whole entry): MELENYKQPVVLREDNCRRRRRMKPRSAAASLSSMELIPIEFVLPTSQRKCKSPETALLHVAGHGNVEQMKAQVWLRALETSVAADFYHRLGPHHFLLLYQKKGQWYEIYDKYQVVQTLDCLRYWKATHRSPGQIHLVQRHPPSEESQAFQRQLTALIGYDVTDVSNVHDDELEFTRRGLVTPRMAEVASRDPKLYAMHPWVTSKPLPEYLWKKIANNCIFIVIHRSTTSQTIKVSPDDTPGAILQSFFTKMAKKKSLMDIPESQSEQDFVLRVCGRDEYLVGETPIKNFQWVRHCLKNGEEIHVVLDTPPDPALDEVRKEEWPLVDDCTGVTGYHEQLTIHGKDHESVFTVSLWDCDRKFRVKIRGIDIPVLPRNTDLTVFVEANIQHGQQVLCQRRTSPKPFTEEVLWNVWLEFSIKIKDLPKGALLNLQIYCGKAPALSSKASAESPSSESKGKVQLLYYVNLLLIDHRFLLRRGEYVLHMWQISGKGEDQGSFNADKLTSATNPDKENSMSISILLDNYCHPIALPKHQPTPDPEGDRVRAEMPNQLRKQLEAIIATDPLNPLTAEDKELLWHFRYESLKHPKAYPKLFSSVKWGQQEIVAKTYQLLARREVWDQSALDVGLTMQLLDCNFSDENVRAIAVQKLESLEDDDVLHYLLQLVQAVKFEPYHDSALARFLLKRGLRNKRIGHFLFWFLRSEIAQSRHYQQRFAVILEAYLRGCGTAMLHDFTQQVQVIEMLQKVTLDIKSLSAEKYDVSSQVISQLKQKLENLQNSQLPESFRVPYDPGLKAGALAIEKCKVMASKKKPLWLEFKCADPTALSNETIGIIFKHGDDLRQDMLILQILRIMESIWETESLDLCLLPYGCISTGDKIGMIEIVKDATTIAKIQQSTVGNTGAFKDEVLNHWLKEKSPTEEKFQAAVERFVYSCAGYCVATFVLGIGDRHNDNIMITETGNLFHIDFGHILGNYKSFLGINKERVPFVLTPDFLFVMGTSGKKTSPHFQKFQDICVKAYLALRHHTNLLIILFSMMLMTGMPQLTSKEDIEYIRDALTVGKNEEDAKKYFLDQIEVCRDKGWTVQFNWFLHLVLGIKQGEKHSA
T10 sequence (P27986 whole entry partner): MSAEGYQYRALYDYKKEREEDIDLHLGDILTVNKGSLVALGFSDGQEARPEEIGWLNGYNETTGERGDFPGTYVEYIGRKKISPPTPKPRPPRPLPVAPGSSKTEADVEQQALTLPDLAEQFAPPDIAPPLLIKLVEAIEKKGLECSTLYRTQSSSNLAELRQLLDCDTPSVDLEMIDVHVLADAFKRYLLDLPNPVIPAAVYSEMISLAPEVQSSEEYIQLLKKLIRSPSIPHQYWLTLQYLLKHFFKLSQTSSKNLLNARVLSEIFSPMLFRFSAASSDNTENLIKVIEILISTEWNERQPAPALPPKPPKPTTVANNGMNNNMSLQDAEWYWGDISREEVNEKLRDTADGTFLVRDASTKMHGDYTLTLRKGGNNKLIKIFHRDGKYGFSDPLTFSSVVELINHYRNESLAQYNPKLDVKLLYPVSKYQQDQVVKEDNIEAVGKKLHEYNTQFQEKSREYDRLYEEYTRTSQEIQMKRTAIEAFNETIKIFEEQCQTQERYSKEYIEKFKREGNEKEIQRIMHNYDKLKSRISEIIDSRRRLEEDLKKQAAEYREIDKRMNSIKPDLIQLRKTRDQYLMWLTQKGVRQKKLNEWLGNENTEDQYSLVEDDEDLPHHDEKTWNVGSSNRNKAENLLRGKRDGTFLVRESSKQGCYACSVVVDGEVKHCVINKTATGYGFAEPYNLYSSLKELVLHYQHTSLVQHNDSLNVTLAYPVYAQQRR
How it was run: as §1

Axl(h) = Axl(h) (Homo sapiens, UniProt P30530)
Axl(h), sequence (P30530 whole entry): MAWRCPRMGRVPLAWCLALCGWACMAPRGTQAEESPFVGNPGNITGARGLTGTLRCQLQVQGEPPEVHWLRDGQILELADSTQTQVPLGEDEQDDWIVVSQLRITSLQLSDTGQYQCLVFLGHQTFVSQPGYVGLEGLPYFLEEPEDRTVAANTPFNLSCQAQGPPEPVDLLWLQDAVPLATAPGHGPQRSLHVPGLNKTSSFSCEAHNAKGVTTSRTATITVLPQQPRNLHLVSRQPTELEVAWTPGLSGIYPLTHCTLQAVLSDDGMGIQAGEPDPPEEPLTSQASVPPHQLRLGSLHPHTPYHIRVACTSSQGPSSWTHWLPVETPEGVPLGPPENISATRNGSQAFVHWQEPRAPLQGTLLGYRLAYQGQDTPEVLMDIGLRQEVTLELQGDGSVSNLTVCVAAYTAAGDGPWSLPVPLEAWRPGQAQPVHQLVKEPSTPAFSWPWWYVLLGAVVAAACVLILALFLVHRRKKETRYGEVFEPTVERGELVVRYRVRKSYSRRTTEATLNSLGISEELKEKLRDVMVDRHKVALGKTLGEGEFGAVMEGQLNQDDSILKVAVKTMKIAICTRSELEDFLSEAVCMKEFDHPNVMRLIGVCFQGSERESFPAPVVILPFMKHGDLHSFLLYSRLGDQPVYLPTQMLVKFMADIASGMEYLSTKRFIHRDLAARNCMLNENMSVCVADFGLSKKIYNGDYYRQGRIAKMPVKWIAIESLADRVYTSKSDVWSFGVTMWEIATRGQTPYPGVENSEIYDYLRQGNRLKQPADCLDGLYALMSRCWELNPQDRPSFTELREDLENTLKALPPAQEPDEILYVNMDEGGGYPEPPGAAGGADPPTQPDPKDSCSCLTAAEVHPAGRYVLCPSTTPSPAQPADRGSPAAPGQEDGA
How it was run: as §1

BRK(h) = target: T11, BRK(h) (Homo sapiens, UniProt Q13882)
T11 construct: gene PTK6
How it was run: as §1

CC[C@@H](N)CNc1ccnc(-c2cc(-c3cnn(C)c3)ccc2O)n1 [CRT0066101]
inhibition at 1 µM (PIK4A): -11%
inhibition at 1 µM (Fer(h)): -25%
inhibition at 1 µM (LKB1(h)): -13%
inhibition at 1 µM (CDK5/p35(h)): 95%
inhibition at 1 µM (FAK(h)): -11%
inhibition at 1 µM (TrkB(h)): 15%
inhibition at 1 µM (Flt3(D835Y)(h)): 80%
inhibition at 1 µM (PAK4(h)): 4%
inhibition at 1 µM (Ron(h)): -8%
inhibition at 1 µM (CK1γ3(h)): -3%
inhibition at 1 µM (ZIPK(h)): 7%
inhibition at 1 µM (PIK3CB / p85 (h)): 0%
inhibition at 1 µM (MELK(h)): 55%
inhibition at 1 µM (FGFR1(h)): -30%
inhibition at 1 µM (PIK3CG / p85 (h)): -1%
inhibition at 1 µM (Axl(h)): 39%
inhibition at 1 µM (BRK(h)): 17%

Reference: PMC5391474, “Investigation of the Role of Protein Kinase D in Human Rhinovirus Replication” (Journal of Virology, 2017)
